Results from patent publication US9499446B2, “Zinc-essential for flora and fauna” (priority 2012, dated 2016).

Columns and labels:
wheat crops = assay: Experiment II: field experiments in wheat, irrigated north-west plain zone of Rajasthan; format: in vivo; conditions: 24 kg ha^−1
Description: Field Experiments in wheat was carried out using the composition of the present invention in the soils of the irrigated north-west plain zone of Rajasthan. The soils of north-west plain zone are deficient in zinc and poor growth or deficiency symptoms appear on the wheat crops. Two foliar sprays were applied. First, during the vegetative growth stage on early appearance of the deficiency symptoms and the second foliar spray during the flag leaf initiation stage of the wheat crop. [table] The soil of the irrigated north-west plain zone of Rajasthan has a pH, of 8.27 and electric conductivity was 0.20 dS^−m. […] The diethylene triamine pentaacetic acid (DTPA) extractable zinc concentration in the soil was low.

Wheat cultivar PBW 550 = assay: Experiment I: field experiments in wheat under different Zn treatments (PAU research farm and farmer's field, Jattpur); format: in vivo; conditions: soil application 62.5 kg ha^−1
Description: Field Experiments in wheat was carried out using the composition of the present invention for two consecutive years in Punjab Agriculture University (PAU) Research Farm and Framer's field (Jattpur) loamy soil. Wheat cultivar PBW 550 seeds were sown during the first week of November. Two Zn chelates at different concentrations at two stages of wheat plant growth were applied through foliar application. In another treatment, Zn was added to the soil as basal dose at 62.5 kg ha^−1 using ZnSO4.7H2O salt. The first application of Zn chelate spray was done at maximum tillering stage and the second application was made at panicle initiation stage. Various parameters like plant height, tillers and 1000-grain weight were noted. Additionally during maturity in the month of April, the wheat grain and straw yield were noted.
The physio-chemical analyses of the soil before the start of the experiment was carried out at the two locations were the experiments were to be carried.
The plant parameters in wheat under different Zn treatments at PAU research farm and farmer's field are shown in Table 3 and Table 4 respectively and grain and straw yields in wheat under different Zn treatments at PAU research farm and farmer's field are shown in Table 5 and Table 6 respectively.

[1] = PAU research farm, Rabi 2009-2010
[2] = PAU research farm, Rabi 2010-2011

## O=S(=O)([O-])[O-].[Zn+2] [ZnSO4]
Wheat crops
  1000 Grain weight: 39.73 g
  Ear length (cm): 10.18 cm
  No. of tillers m^−1 row length: 122
  Yield (tonne ha^−1) Grain: 4.57 tonne ha^−1
  Yield (tonne ha^−1) Straw: 6.61 tonne ha^−1
  Zn conc: 30.25 mg/kg

## O.O.O.O.O.O.O.O=S(=O)([O-])[O-].[Zn+2] [ZnSO4•7H2O]
Wheat cultivar PBW 550; [1]
  1000 grains weight: 38.4 g
  Grain yield: 52.5 q ha^−1
  Grain yield % increase over control: 10.8%
  Plant height (cm): 76.7 cm
  Straw yield: 65.0 q ha^−1
  Straw yield % increase over control: 3.7%
  Tillers per square meter: 293
Wheat cultivar PBW 550; [2]
  1000 grains weight: 38.7 g
  Grain yield: 54.4 q ha^−1
  Grain yield % increase over control: 13.3%
  Plant height (cm): 97.69 cm
  Straw yield: 65.7 q ha^−1
  Straw yield % increase over control: 5.5%
  Tillers per square meter: 377
Wheat cultivar PBW 550; farmer's field, Rabi 2009-2010
  1000 grains weight: 35.1 g
  Grain yield: 46.7 q ha^−1
  Grain yield % increase over control: 28.7%
  Plant height (cm): 76.6 cm
  Straw yield: 55.3 q ha^−1
  Straw yield % increase over control: 9.1%
  Tillers per square meter: 272
Wheat cultivar PBW 550; farmer's field, Rabi 2010-2011
  1000 grains weight: 34.3 g
  Grain yield: 46.0 q ha^−1
  Grain yield % increase over control: 28.5%
  Plant height (cm): 74.7 cm
  Straw yield: 54.7 q ha^−1
  Straw yield % increase over control: 20.8%
  Tillers per square meter: 353
